Test results taken from PMC6886798, “Expression of myeloid Src-family kinases is associated with poor prognosis in AML and influences Flt3-ITD kinase inhibitor acquired resistance” (PLoS ONE, 2019).

Key:
Assay in all cases: KINOMEscan
Type in all cases: binding
Details in all cases: 1.0 µM
MST3 = molecular target: T1, MST3 (Homo sapiens, UniProt Q9Y6E0)
T1 construct: purchased Eurofins/DiscoverX KINOMEscan scanMAX
Method: (§1) Kinase retention to the immobilized ligand is then measured using quantitative real-time PCR for each kinase-specific DNA barcode.

CDKL1 = molecular target: T2, CDKL1 (Homo sapiens, UniProt Q00532)
T2 construct: purchased Eurofins/DiscoverX KINOMEscan scanMAX
Method: as §1

CDK11 = molecular target: T3, CDK11 (Homo sapiens, UniProt Q9BWU1)
T3 construct: purchased Eurofins/DiscoverX KINOMEscan scanMAX
Method: as §1

STK36 = molecular target: T4, STK36 (Homo sapiens, UniProt Q9NRP7)
T4 construct: purchased Eurofins/DiscoverX KINOMEscan scanMAX
Method: as §1

ERK4 = molecular target: T5, ERK4 (Homo sapiens, UniProt P31152)
T5 construct: purchased Eurofins/DiscoverX KINOMEscan scanMAX
Method: as §1

DYRK2 = molecular target: T6, DYRK2 (Homo sapiens, UniProt Q92630)
T6 construct: purchased Eurofins/DiscoverX KINOMEscan scanMAX
Method: as §1

SRPK3 = molecular target: T7, SRPK3 (Homo sapiens, UniProt Q9UPE1)
T7 construct: purchased Eurofins/DiscoverX KINOMEscan scanMAX
Method: as §1

ERK3 = molecular target: T8, ERK3 (Homo sapiens, UniProt Q16659)
T8 construct: purchased Eurofins/DiscoverX KINOMEscan scanMAX
Method: as §1

CSF1R = molecular target: T9, CSF1R (Homo sapiens, UniProt P07333)
T9 construct: purchased Eurofins/DiscoverX KINOMEscan scanMAX
Method: as §1

NEK11 = molecular target: T10, NEK11 (Homo sapiens, UniProt Q8NG66)
T10 construct: purchased Eurofins/DiscoverX KINOMEscan scanMAX
Method: as §1

MEK1 = molecular target: T11, MEK1 (Homo sapiens, UniProt Q02750)
T11 construct: purchased Eurofins/DiscoverX KINOMEscan scanMAX
Method: as §1

MET(M1250T) = molecular target: T12, MET(M1250T) (Homo sapiens, UniProt P08581, M1250T)
T12 construct: purchased Eurofins/DiscoverX KINOMEscan scanMAX
Method: as §1

PAK1 = molecular target: T13, PAK1 (Homo sapiens, UniProt Q13153)
T13 construct: purchased Eurofins/DiscoverX KINOMEscan scanMAX
Method: as §1

PIK3CA(H1047L) = molecular target: T14, PIK3CA(H1047L) (Homo sapiens, UniProt P42336, H1047L)
T14 construct: purchased Eurofins/DiscoverX KINOMEscan scanMAX
Method: as §1

MINK = molecular target: T15, MINK (Homo sapiens, UniProt Q8N4C8)
T15 construct: purchased Eurofins/DiscoverX KINOMEscan scanMAX
Method: as §1

FAK = molecular target: T16, FAK (Homo sapiens, UniProt Q05397)
T16 construct: purchased Eurofins/DiscoverX KINOMEscan scanMAX
Method: as §1

PDGFRA = molecular target: T17, PDGFRA (Homo sapiens, UniProt P16234)
T17 construct: purchased Eurofins/DiscoverX KINOMEscan scanMAX
Method: as §1

[1] = molecular target: T18, ABL1(F317I)-nonphosphorylated (Homo sapiens, UniProt P00519, F317I)
T18 construct: purchased Eurofins/DiscoverX KINOMEscan scanMAX
Method: as §1

PFCDPK1(P.falciparum) = molecular target: T19, PFCDPK1(P.falciparum) (Plasmodium falciparum, UniProt P62344)
T19 construct: purchased Eurofins/DiscoverX KINOMEscan scanMAX
Method: as §1

[2] = molecular target: T20, RPS6KA5(Kin.Dom.2-C-terminal) (Homo sapiens, UniProt O75582)
T20 construct: RPS6KA5(Kin.Dom.2-C-terminal); purchased Eurofins/DiscoverX KINOMEscan scanMAX
Method: as §1

TGFBR1 = molecular target: T21, TGFBR1 (Homo sapiens, UniProt P36897)
T21 construct: purchased Eurofins/DiscoverX KINOMEscan scanMAX
Method: as §1

CAMK1 = molecular target: T22, CAMK1 (Homo sapiens, UniProt Q14012)
T22 construct: purchased Eurofins/DiscoverX KINOMEscan scanMAX
Method: as §1

PRKCI = molecular target: T23, PRKCI (Homo sapiens, UniProt P41743)
T23 construct: purchased Eurofins/DiscoverX KINOMEscan scanMAX
Method: as §1

STK16 = molecular target: T24, STK16 (Homo sapiens, UniProt O75716)
T24 construct: purchased Eurofins/DiscoverX KINOMEscan scanMAX
Method: as §1

[3] = molecular target: T25, ABL1(Y253F)-phosphorylated (Homo sapiens, UniProt P00519, Y253F)
T25 construct: purchased Eurofins/DiscoverX KINOMEscan scanMAX
Method: as §1

EIF2AK1 = molecular target: T26, EIF2AK1 (Homo sapiens, UniProt Q9BQI3)
T26 construct: purchased Eurofins/DiscoverX KINOMEscan scanMAX
Method: as §1

DCAMKL1 = molecular target: T27, DCAMKL1 (Homo sapiens, UniProt O15075)
T27 construct: purchased Eurofins/DiscoverX KINOMEscan scanMAX
Method: as §1

FLT3(D835H) = molecular target: T28, FLT3(D835H) (Homo sapiens, UniProt P36888, D835H)
T28 construct: purchased Eurofins/DiscoverX KINOMEscan scanMAX
Method: as §1

[4] = molecular target: T29, ABL1(H396P)-nonphosphorylated (Homo sapiens, UniProt P00519, H396P)
T29 construct: purchased Eurofins/DiscoverX KINOMEscan scanMAX
Method: as §1

HUNK = molecular target: T30, HUNK (Homo sapiens, UniProt P57058)
T30 construct: purchased Eurofins/DiscoverX KINOMEscan scanMAX
Method: as §1

MAP4K2 = molecular target: T31, MAP4K2 (Homo sapiens, UniProt Q12851)
T31 construct: purchased Eurofins/DiscoverX KINOMEscan scanMAX
Method: as §1

[5] = molecular target: T32, RSK3(Kin.Dom.2-C-terminal) (Homo sapiens, UniProt Q15349)
T32 construct: RSK3(Kin.Dom.2-C-terminal); purchased Eurofins/DiscoverX KINOMEscan scanMAX
Method: as §1

PIKFYVE = molecular target: T33, PIKFYVE (Homo sapiens, UniProt Q9Y2I7)
T33 construct: purchased Eurofins/DiscoverX KINOMEscan scanMAX
Method: as §1

GRK2 = molecular target: T34, GRK2 (Homo sapiens, UniProt P25098)
T34 construct: purchased Eurofins/DiscoverX KINOMEscan scanMAX
Method: as §1

[6] = molecular target: T35, TYK2(JH2domain-pseudokinase) (Homo sapiens, UniProt P29597)
T35 construct: TYK2(JH2domain-pseudokinase); DNA tag (qPCR barcode); purchased Eurofins/DiscoverX KINOMEscan scanMAX
Method: as §1

p38-alpha = molecular target: T36, p38-alpha (Homo sapiens, UniProt Q16539)
T36 construct: purchased Eurofins/DiscoverX KINOMEscan scanMAX
Method: as §1

CLK3 = molecular target: T37, CLK3 (Homo sapiens, UniProt P49761)
T37 construct: purchased Eurofins/DiscoverX KINOMEscan scanMAX
Method: as §1

HIPK1 = molecular target: T38, HIPK1 (Homo sapiens, UniProt Q86Z02)
T38 construct: purchased Eurofins/DiscoverX KINOMEscan scanMAX
Method: as §1

PIK3CG = molecular target: T39, PIK3CG (Homo sapiens, UniProt P48736)
T39 construct: purchased Eurofins/DiscoverX KINOMEscan scanMAX
Method: as §1

MRCKB = molecular target: T40, MRCKB (Homo sapiens, UniProt Q9Y5S2)
T40 construct: purchased Eurofins/DiscoverX KINOMEscan scanMAX
Method: as §1

T31 sequence (Q12851 whole entry): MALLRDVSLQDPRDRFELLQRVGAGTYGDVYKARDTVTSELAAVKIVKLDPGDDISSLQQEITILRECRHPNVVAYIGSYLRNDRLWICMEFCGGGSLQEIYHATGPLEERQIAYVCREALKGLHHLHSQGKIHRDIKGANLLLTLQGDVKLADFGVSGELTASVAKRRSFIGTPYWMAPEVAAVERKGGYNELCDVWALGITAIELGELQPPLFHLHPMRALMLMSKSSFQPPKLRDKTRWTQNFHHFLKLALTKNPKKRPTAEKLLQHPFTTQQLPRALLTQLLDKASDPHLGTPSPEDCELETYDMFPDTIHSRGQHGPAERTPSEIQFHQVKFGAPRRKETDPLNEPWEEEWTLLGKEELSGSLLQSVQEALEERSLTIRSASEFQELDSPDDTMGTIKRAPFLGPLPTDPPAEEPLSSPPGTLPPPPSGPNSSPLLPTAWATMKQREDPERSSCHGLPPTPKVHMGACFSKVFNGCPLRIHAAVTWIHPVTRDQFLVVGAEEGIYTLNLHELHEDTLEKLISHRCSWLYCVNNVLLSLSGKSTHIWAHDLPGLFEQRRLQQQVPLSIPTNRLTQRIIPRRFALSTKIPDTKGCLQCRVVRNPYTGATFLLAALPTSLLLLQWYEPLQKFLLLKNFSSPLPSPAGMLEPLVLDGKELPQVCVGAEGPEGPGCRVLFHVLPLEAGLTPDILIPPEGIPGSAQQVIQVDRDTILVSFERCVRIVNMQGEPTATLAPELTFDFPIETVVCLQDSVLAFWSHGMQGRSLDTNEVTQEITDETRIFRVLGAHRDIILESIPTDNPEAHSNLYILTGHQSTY
T3 sequence (Q9BWU1 whole entry): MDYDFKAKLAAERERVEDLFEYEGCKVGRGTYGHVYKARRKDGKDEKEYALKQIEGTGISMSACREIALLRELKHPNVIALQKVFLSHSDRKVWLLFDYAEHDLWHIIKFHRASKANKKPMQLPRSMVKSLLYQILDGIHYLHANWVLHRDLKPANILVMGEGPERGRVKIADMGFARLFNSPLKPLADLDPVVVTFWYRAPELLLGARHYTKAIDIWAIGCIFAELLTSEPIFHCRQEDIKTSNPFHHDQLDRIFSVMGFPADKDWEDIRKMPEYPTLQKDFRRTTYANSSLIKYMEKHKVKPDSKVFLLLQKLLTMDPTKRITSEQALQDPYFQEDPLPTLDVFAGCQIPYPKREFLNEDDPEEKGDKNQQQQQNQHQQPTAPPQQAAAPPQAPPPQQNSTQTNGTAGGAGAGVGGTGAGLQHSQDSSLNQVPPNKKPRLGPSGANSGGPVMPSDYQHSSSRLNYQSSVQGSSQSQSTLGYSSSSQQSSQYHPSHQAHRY
T26 sequence (Q9BQI3 whole entry): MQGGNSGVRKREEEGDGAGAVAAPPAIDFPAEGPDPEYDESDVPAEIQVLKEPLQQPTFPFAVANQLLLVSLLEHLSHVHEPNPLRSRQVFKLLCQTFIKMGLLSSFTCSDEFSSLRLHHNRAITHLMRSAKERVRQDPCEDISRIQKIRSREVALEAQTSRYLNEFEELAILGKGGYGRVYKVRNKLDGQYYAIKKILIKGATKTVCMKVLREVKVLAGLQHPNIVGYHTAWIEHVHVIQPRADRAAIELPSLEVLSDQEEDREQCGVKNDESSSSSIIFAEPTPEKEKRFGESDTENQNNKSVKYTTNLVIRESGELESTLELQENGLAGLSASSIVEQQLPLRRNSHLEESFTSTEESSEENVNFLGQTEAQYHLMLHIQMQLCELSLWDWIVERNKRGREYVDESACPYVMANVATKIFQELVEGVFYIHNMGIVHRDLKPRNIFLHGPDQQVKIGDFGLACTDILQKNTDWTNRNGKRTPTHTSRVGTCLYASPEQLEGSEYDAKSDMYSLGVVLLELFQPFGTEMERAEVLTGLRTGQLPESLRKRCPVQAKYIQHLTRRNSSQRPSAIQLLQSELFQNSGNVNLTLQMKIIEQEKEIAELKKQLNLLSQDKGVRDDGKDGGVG
T39 sequence (P48736 whole entry): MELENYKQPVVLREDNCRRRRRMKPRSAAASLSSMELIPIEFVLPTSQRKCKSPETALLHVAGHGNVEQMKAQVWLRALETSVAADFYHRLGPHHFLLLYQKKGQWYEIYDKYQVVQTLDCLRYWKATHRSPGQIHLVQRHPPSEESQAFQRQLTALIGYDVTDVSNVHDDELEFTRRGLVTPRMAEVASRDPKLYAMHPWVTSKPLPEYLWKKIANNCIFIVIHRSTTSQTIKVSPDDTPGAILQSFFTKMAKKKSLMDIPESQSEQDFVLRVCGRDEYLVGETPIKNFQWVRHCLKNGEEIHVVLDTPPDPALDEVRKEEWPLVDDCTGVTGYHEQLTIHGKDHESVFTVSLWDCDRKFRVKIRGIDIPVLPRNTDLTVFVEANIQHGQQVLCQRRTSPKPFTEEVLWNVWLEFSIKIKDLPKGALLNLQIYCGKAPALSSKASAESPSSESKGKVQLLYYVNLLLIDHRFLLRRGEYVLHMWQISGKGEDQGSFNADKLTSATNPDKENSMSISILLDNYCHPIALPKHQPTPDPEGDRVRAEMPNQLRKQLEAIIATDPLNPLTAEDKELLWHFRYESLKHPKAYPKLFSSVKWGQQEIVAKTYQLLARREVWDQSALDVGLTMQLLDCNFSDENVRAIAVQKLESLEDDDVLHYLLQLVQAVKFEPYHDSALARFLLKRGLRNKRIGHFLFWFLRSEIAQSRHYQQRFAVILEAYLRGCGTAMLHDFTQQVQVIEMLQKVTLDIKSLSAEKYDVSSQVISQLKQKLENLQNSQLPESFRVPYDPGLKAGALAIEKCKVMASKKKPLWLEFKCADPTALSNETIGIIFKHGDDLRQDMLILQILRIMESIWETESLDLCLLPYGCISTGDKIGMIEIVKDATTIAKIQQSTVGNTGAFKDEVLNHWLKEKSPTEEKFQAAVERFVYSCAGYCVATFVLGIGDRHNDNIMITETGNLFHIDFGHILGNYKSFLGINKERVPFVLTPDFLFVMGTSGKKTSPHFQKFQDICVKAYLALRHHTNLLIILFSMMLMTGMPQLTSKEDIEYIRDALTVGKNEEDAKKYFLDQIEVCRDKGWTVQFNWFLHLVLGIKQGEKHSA
T32 sequence (Q15349 415-672 limits assumed): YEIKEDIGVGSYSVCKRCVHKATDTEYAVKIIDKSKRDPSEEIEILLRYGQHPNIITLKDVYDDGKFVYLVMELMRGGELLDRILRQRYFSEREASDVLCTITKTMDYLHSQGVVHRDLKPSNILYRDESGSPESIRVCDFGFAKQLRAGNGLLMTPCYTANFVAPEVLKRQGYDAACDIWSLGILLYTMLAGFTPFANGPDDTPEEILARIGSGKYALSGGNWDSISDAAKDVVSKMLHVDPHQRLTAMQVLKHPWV
T30 sequence (P57058 whole entry): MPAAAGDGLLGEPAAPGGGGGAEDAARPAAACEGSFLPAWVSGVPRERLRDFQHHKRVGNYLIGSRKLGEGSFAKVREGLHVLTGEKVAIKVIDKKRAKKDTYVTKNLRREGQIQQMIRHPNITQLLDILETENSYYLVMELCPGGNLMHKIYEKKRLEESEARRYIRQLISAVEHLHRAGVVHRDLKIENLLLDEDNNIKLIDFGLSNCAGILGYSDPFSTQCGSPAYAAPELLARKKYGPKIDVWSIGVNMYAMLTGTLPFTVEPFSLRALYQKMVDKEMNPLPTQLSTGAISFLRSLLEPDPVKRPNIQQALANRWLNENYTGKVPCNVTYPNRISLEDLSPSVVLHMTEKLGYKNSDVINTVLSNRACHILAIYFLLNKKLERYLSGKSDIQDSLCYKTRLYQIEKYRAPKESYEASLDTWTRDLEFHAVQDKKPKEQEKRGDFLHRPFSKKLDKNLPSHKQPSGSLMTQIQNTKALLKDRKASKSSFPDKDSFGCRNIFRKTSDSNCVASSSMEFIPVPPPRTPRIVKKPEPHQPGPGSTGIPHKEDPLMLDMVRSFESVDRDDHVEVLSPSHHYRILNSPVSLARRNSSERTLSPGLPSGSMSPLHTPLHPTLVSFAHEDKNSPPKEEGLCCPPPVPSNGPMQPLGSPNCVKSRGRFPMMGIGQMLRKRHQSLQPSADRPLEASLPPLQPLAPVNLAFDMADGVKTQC
T34 sequence (P25098 whole entry): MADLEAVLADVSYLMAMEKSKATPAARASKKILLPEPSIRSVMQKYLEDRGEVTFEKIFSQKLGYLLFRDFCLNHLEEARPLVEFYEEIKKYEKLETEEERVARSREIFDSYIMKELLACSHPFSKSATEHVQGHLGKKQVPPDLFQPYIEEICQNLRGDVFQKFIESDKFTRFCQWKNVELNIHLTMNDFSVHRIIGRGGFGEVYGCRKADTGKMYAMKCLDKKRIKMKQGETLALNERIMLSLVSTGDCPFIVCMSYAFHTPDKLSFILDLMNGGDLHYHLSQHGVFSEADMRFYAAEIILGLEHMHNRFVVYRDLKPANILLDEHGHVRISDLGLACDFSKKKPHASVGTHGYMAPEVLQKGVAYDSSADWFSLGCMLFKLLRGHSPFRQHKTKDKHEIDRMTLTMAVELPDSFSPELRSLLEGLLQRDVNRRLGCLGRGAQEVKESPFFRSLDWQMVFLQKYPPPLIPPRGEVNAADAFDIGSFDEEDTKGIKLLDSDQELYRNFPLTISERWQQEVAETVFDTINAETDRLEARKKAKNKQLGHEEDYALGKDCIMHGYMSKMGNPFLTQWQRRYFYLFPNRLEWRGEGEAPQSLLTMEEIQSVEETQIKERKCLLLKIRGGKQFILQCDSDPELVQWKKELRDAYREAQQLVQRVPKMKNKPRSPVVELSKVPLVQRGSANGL
T35 sequence (P29597 589-875 limits assumed): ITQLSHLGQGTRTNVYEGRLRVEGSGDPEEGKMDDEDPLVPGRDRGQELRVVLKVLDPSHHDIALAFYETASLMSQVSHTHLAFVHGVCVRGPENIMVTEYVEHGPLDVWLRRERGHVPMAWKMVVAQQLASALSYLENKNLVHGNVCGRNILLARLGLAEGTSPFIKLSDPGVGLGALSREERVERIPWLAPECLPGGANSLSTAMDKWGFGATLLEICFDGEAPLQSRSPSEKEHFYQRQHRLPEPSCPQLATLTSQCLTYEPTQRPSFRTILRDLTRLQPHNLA

## CN1CCN(C2CCC(n3cc(-c4ccc(Oc5ccccc5)cc4)c4c(N)ncnc43)CC2)CC1 (stereo not shown) [A-419259]
MST3
  % Control: 80%
CDKL1
  % Control: 99%
CDK11
  % Control: 3.9%
STK36
  % Control: 18%
ERK4
  % Control: 56%
DYRK2
  % Control: 100%
SRPK3
  % Control: 99%
ERK3
  % Control: 100%
CSF1R
  % Control: 5.8%
NEK11
  % Control: 77%
MEK1
  % Control: 0.1%
MET(M1250T)
  % Control: 59%
PAK1
  % Control: 55%
PIK3CA(H1047L)
  % Control: 98%
MINK
  % Control: 30%
FAK
  % Control: 72%
PDGFRA
  % Control: 1.1%
[1]
  % Control: 2.5%
PFCDPK1(P.falciparum)
  % Control: 0%
[2]
  % Control: 96%
TGFBR1
  % Control: 60%
CAMK1
  % Control: 92%
PRKCI
  % Control: 26%
STK16
  % Control: 100%
[3]
  % Control: 0.35%
EIF2AK1
  % Control: 99%
DCAMKL1
  % Control: 43%
FLT3(D835H)
  % Control: 12%
[4]
  % Control: 0.2%
HUNK
  % Control: 100%
MAP4K2
  % Control: 98%
[5]
  % Control: 100%
PIKFYVE
  % Control: 78%
GRK2
  % Control: 100%
[6]
  % Control: 95%
p38-alpha
  % Control: 100%
CLK3
  % Control: 100%
HIPK1
  % Control: 80%
PIK3CG
  % Control: 61%
MRCKB
  % Control: 100%
